Data as given in patent US5538712A, “Cyclopentadienylcarbonyl 99MTC complexes, process for their production as well as their use in diagnostics” (Institut Fur Diagnostikforschung GmbH/an der Freien …, priority 1990, dated 1996).
Read-outs that look alike come from different tables or passages of the source.

Columns and labels:
[1] = In vivo SPECT study of cerebral blood flow in rabbits; set-up: species or system rabbits (New Zealander); settings: for contrast [brain/background]: rabbit SPECT, 8 minutes p.i., 15 minutes p.i.; for contrast [brain/background] / cerebral uptake: HM-PAO 59 MBq, cytectrene 14 MBq; for cerebral uptake: rabbit, i.v., test from 8 minutes p.i., from 15 minutes p.i., 2400 seconds
Description: In an in vivo study on rabbits (New Zealander, breeding by Schering AG Berlin, approximately 4 kg, male), the cerebral blood flow of commercially available HM-PAO was compared with the N-methyl-piperidin-4-ol-cytectrenecarboxylic acid ester (produced analogously to example 6).
The study was made with a SPECT camera of Apex 409 type.
After nembutal anesthesia, the animal was intravenously administered 1 ml of an isotonic, aqueous, sterile solution of ^99m Tc-HMPAO or said cytectrene derivative.
The recording technique and the results are described by the following table.

[2] = cited from earlier work
[3] = clinical use, because of insufficient stability; cited from earlier work
[4] = Organ distribution in mice of 99mTc-acetylcymantrene; type: in vivo
Description: (§1) The organ distributions in mice and rats as well as partially in rabbits were tested by the technetium-labeled cytectrene derivatives. The organ distribution of the ^99m Tc-labeled cytectrene derivatives is a function of the substituent on the cyclopentadienyl ring system.

[5] = Chemical stability, decomposition by chromatography; type: physicochemical; settings: after 24 hours, chromatographically
Excerpt: This lipophilic ^99m Tc-compound can be obtained in pure form by elution of the corresponding silica gel fraction (RF =0.36), e.g., with ethanol. The radiochemical purity is established by rechromatography of the eluate.

[6] = Organ distribution of Tc-labeled cytectrene derivatives vs pertechnetate (FIG. 1); type: in vivo, mice and rats, partially rabbits; settings: pertechnetate for comparison
Description: as §1
FIG. 1 indicates the organ distribution of various cytectrene derivatives. For comparison, the organ distribution of pertechnetate was also recorded in this table. From the organ concentrations, it can clearly be recognized that the organ distribution of the cytectrene derivatives drastically differs from the distribution after administration of pertechnetate. With pertechnetate, the organ with the highest radioactivity concentration is blood (2.6% of dose/% body weight). On the other hand, the ^99m Tc cytectrene derivatives show a pronounced affinity for other, respectively different organs. The affinity for the individual organ is clearly dependent on the side chain of the cytectrene compound.

[7] = 99mTc concentration in rat brain and brain/blood concentration quotient (FIGS. 2 and 3); type: in vivo
Description: FIG. 2 graphically illustrates the results of tests on ^99m Tc concentration in the brain (% dose/% weight). In the experiments, the rats (n=4) intravenously received about 5 μCi of the Tc-99-labeled ester dissolved in 0.1 ml of EtOH/0.9% NaCl per animal. The esters, i.e., 4-pip-ester, 3-pip-ester and quin.-ester, were obtained from cytectrene-carboxylic acid and the following, respectively: 4-hydroxy-N-(methyl)-piperidine, 3-hydroxy-N-(methyl)-piperidine and 3-quinuclidinol. 15 minutes after HM-PAO administration, the brain concentration is at 1.7% dose/% weight. […] The rats (n=4) intravenously received about 5 μCi of the Tc-99-labeled ester dissolved in 0.1 ml of EtOH/0.9% NaCl per animal. The esters tested were obtained from cytectrenecarboxylic acid and 4-hydroxy-N-(methyl)-piperidine, 3-hydroxy-N-(methyl)-piperidine and 3-quinuclidinol, respectively. 15 minutes after HM-PAO administration, the brain/blood quotient is at 1.5:1.

For `C/C(=N\O)C(C)NCC(C)(C)CNC(C)/C(C)=N/O` (centres unmarked) [HM-PAO, hexamethyl-propylenamine oxime], the “contrast [brain/background]” value [1] is listed as 0.98, the cerebral uptake [1] is listed as 5.9 % of the administered activity and the “concentration in the brain” value ([2]; comparable measurements for known compounds, L. Bacciottini et al. 1990) is listed as “around 1.7 % dose/% body weight”. The “99mTc concentration in the brain” value ([2]; rat, 15 minutes after HM-PAO administration) was 1.7 % dose/% weight and the “time after labeling within which it has to be administered” value [3] was ≤ 30 min.

For `CC(=O)[C]1([Tc](=[C]=O)(=[C]=O)=[C]=O)C=CC=C1` [Example 1a, Tc-99m Acetyl-cytectrene], the organ distribution [4] was “preferred concentration in liver and suprarenal glands”, the “chemical stability of the labeled compound” value [5] was “chemically stable, since after 24 hours, no decomposition is chromatographically detectable” and the “chemical stability of the labeled compound” value ([5]; listed as Example 1b) was “chemically stable, after 24 hours, no decomposition is chromatographically detectable”.

In the case of `[O]=[99Tc](=[O])(=[O])[O-]` [pertechnetate, ^99m Tc-pertechnetate], the “radioactivity concentration in blood (organ with the highest concentration)” value [6] is reported as 2.6 % of dose/% body weight.

In the case of “cyclopentadienylcarboxylic acid-(N-methyl-piperidinol)-4-ester-^99m technetium-tricarbonyl complex”, the “contrast [brain/background]” value [1] is reported as 0.98, the cerebral uptake [1] is reported as 7.5 % of the administered activity and the “visual delimitability of the brain in SPECT tests” value ([1]; rabbits, 14 MBq, compared with HM-PAO complex) is reported as “more clearly visual delimitability of the brain in SPECT tests”. The “concentration ratio of brain/blood, improvement factor over HM-PAO” value ([7]; compared with HM-PAO complexes) was ~10 factor and the “concentration in the brain” value ([7]; i.v., about 5 μCi) was “about 4 % dose/% body weight”.
